Several values for one entry are separate records, joined by “and”; a condition that tells them apart may be missing. Equal values may be shown once. Read-outs that look alike come from different tables or passages of the source. Ends that are not written are not given here.
How the values were obtained:
S. epidermidis [1] = experiment: Disc antimicrobial susceptibility test (BD BBL Sensi-Disc); type: cell-based, Staphylococcus epidermidis; parameters: key: Susceptible; Intermediate; Resistant; conditions: 24 h
Description: (§1) Supplementary file pone.0243315.s001.docx: S1 Table Antimicrobial susceptibility test results of reference strain and representative bacteria used from CRS patients. Bacterial suspensions were incubated with antibiotics for 24 h and the results were interpreted according to BD BBL™ Sensi-Disc™ antimicrobial susceptibility test discs. (DOCX) Click here for additional data file.
(§2) Antibiotics susceptibility testing was performed using BD BBL™ Sensi-Disc™ antimicrobial susceptibility test discs (Becton, Dickinson and Company, Franklin Lakes, NJ) and the results were interpreted according to the manufacturer's instructions.

P. aeruginosa ATCC27853 = experiment: as above; type: cell-based, Pseudomonas aeruginosa; parameters: key: Susceptible; Intermediate; Resistant; conditions: 24 h
Description: as §1, §2

P. aeruginosa [2] = experiment: as above; type: cell-based, Pseudomonas aeruginosa; parameters: key: Susceptible; Intermediate; Resistant; conditions: 24 h
Description: as §1, §2

K. pneumoniae [3] = experiment: as above; type: cell-based, Klebsiella pneumoniae; parameters: key: Susceptible; Intermediate; Resistant; conditions: 24 h
Description: as §1, §2

P. aeruginosa biofilm [4] = experiment: microbe, parasite or virus in culture
Description: (§3) The effects of both conventional antibiotics and AMPs against bacteria under biofilm-stimulating condition were determined using a transferable solid phase (TSP) pin lid, which resembles the ‘Calgary’ biofilm device as previously described with some modifications. Each strain (10^7 CFU/ml) was added to sterile 96-well plates (Nunclon™), then covered by a TSP pin lid (NUNC™, Roskilde, Denmark), and further incubated at 37 °C for 24 h. […] Additionally, the effect of TOB (2–836 μM or 1–391 μg/ml) against P. aeruginosa biofilm was also investigated. Then the plates were statically incubated at 37 °C for 24 h. A well free of antimicrobial agent was used as a control. After 24 h, bacterial survival was determined using the plate count technique on NA (Himedia®). The percentage killing of each antimicrobial agent was calculated using the formula [1 − (CFU sample/CFU control)] × 100% [15, 19]. […] Each experiment was performed independently three times in duplicate.

P. aeruginosa biofilm [5] = experiment: Checkerboard synergy of D-LL-31 with antibiotics on biofilm; type: cell-based, Pseudomonas aeruginosa
Description: (§4) Bacterial viability in each interaction was determined using the plate count technique. The fractional inhibitory concentration index (FICI) values were calculated and interpreted in terms of synergism/antagonism as previously described. Each experiment was performed independently three times in duplicate.

[6] = test system: clinical isolate P. aeruginosa; experiment: Killing of planktonic bacteria (CFU count); type: cell-based, Pseudomonas aeruginosa; conditions: 1–2 h
Description: (§5) A bacterial suspension without peptide served as a control. The samples were then serially diluted and cultivated on NA (Himedia®) and incubated for 24 h to allow colony counting. The percentage killing by each AMP was calculated using the formula [1 − (CFU sample/CFU control)] × 100% [15, 36]. Each experiment was performed independently three times in duplicate.

[7] = test system: reference strain P. aeruginosa ATCC 27853; experiment: Killing of planktonic bacteria (CFU count); type: cell-based, Pseudomonas aeruginosa
Description: as §5

P. aeruginosa [8] = experiment: Broth microdilution MIC/MBC of conventional antibiotics, planktonic form; type: cell-based, Pseudomonas aeruginosa; conditions: for MBC: broth microdilution then plate count on MHA, planktonic
Description: (§6) MICs and MBCs of conventional antibiotics were determined using a broth microdilution technique. […] Only P. aeruginosa was additionally tested for susceptibility to TOB (Sigma-Aldrich) (0.03–52 μM or 0.01–25 μg/ml). Bacterial suspensions (5 x 10^5 CFU/ml) were added to the microtiter plates, which were then incubated at 37 °C for 24 h. Antibiotic-free culture was used as a control. […] The results were confirmed using a microplate reader at OD620 (Sunrise™, TECAN, Australia). The plate count technique was further used to determine the MBC values on Mueller Hinton agar (MHA) (Himedia®). Each experiment was performed independently three times in triplicate.

S. epidermidis biofilm [9] = experiment: microbe, parasite or virus in culture
Description: as §3

K. pneumoniae biofilm [10] = experiment: microbe, parasite or virus in culture
Description: as §3

K. pneumoniae [11] = experiment: Broth microdilution MIC/MBC of conventional antibiotics, planktonic form; type: cell-based, Klebsiella pneumoniae; conditions: for MBC: broth microdilution then plate count on MHA; for MIC: broth microdilution, MHB, 5 x 10^5 CFU/ml, 37 °C, 24 h, CLSI
Description: as §6

[12] = test system: S. epidermidis biofilm matrix; experiment: Biofilm matrix reduction (AAA-model, CLSM, COMSTAT biomass); type: cell-based, Staphylococcus epidermidis; conditions: AMX alone at IC50 (33092 μM), 24 h, P < 0.05
Description: Briefly, 1.5 ml of each overnight culture (10^8 CFU/ml) was added to a 24-well tissue culture plate (Nunclon™). The plate was covered with a sterile stainless-steel lid containing glass coverslips and aerobically incubated at 37°C for 24 h. […] All tested conditions were incubated at 37°C for 24 h. A well free of antimicrobial agent was used as a control. Following incubation, biofilms were fixed with 2.5% glutaraldehyde (Sigma-Aldrich) at 25°C for 3 h. The fixed bacterial biofilms on glass coverslips were stained with 50 μg/ml Alexa Fluor® 488 (Invitrogen, Carlsbad, CA) for 30 min. This stain reacts with exopolysaccharide matrixes of the biofilm. The glass coverslips were then mounted with 80% glycerol and the stained cells were photographed using a confocal laser-scanning microscope (CLSM) (TCS SP8-Leica Microsystems, Wetzlar, Germany). […] Each experiment was performed independently three times in duplicate.

K. pneumoniae biofilm [13] = experiment: Checkerboard synergy of D-LL-31 with antibiotics on biofilm; type: cell-based, Klebsiella pneumoniae; conditions: Klebsiella pneumoniae, read-out: Antimicrobial agent in concentration of combination
Description: as §4

S. epidermidis [14] = experiment: Broth microdilution MIC/MBC of conventional antibiotics, planktonic form; type: cell-based, Staphylococcus epidermidis; conditions: MHB, 5 x 10^5 CFU/ml, 37 °C, 24 h, CLSI
Description: as §6

S. epidermidis biofilm [15] = experiment: Checkerboard synergy of D-LL-31 with antibiotics on biofilm; type: cell-based, Staphylococcus epidermidis; conditions: Staphylococcus epidermidis, read-out: Antimicrobial agent in concentration of combination
Description: as §4

[16] = test system: all strains (bacteria isolated from CRS patients); experiment: Broth microdilution susceptibility, statement for all strains; type: cell-based; conditions: planktonic form
Description: MICs and MBCs of conventional antibiotics were determined using a broth microdilution technique. […] Only P. aeruginosa was additionally tested for susceptibility to TOB (Sigma-Aldrich) (0.03–52 μM or 0.01–25 μg/ml). Bacterial suspensions (5 x 10^5 CFU/ml) were added to the microtiter plates, which were then incubated at 37 °C for 24 h. Antibiotic-free culture was used as a control. After incubation, MIC values were observed according to the guidelines of the Clinical & Laboratory Standards Institute (CLSI). The results were confirmed using a microplate reader at OD620 (Sunrise™, TECAN, Australia). The plate count technique was further used to determine the MBC values on Mueller Hinton agar (MHA) (Himedia®). Each experiment was performed independently three times in triplicate.

[17] = Pseudomonas aeruginosa, 24 h, read-out: IC50 value
[18] = highest concentration of AMX (68418 μM or 25000 μg/ml), 24 h biofilm, 24 h

## Penicillin
S. epidermidis [1]
  antimicrobial susceptibility: S

## CN(C)[C@@H]1C(O)=C(C(N)=O)C(=O)[C@@]2(O)C(O)=C3C(=O)c4c(O)cccc4[C@@](C)(O)[C@H]3C[C@@H]12 [TET, Tetracycline]
P. aeruginosa ATCC27853
  antimicrobial susceptibility: S
P. aeruginosa [2]
  antimicrobial susceptibility: R
K. pneumoniae [3]
  antimicrobial susceptibility: I
S. epidermidis [1]
  antimicrobial susceptibility: S

## CO/N=C(\C(=O)N[C@@H]1C(=O)N2C(C(=O)O)=C(CSc3nc(=O)c(=O)[nH]n3C)CS[C@H]12)c1csc(N)n1 [CRO, Ceftriaxone]
P. aeruginosa ATCC27853
  antimicrobial susceptibility: S
P. aeruginosa [2]
  antimicrobial susceptibility: R
K. pneumoniae [3]
  antimicrobial susceptibility: S
S. epidermidis [1]
  antimicrobial susceptibility: S

## CNC(C)C1CCC(N)C(OC2C(N)CC(N)C(OC3OCC(C)(O)C(NC)C3O)C2O)O1 (centres unmarked) [GEN, Gentamicin]
P. aeruginosa ATCC27853
  antimicrobial susceptibility: S
P. aeruginosa [2]
  antimicrobial susceptibility: I
K. pneumoniae [3]
  antimicrobial susceptibility: I
S. epidermidis [1]
  antimicrobial susceptibility: S

## CC[C@H]1OC(=O)[C@H](C)[C@@H](O[C@H]2C[C@@](C)(OC)[C@@H](O)[C@H](C)O2)[C@H](C)[C@@H](O[C@@H]2O[C@H](C)C[C@H](N(C)C)[C@H]2O)[C@](C)(O)C[C@@H](C)C(=O)[C@H](C)[C@@H](O)[C@]1(C)O [ERY, Erythromycin]
S. epidermidis [1]
  antimicrobial susceptibility: R

## NC[C@H]1O[C@H](O[C@H]2[C@H](O)[C@@H](O[C@H]3O[C@H](CO)[C@@H](O)[C@H](N)[C@H]3O)[C@H](N)C[C@@H]2N)[C@H](N)C[C@@H]1O [TOB, tobramycin]
P. aeruginosa ATCC27853
  antimicrobial susceptibility: S
P. aeruginosa [2]
  antimicrobial susceptibility: S
P. aeruginosa biofilm [4]; 24 h biofilm, 24 h
  sensitivity of biofilm, in words: sensitive
P. aeruginosa biofilm [4]; [17]
  IC50: 4 µM and 2 µg/mL
P. aeruginosa biofilm [5]; D-LL-31 combined with TOB; IC50 alone compared with concentration of combination
  Fold decrease of IC50 values: 16 fold
P. aeruginosa biofilm [5]; Pseudomonas aeruginosa, 24 h, read-out: Antimicrobial agent in concentration of combination
  IC50: 0.2 µM
P. aeruginosa biofilm [5]; Pseudomonas aeruginosa, read-out: Antimicrobial agent in concentration of combination
  IC50: 0.1 µg/mL
[6]; 1 and 5 μM
  killing effect: ≥ 92%
[6]; planktonic
  concentration required to kill all bacterial cells: 10 µM
[7]; 1 μM, 1 h
  killing effect: ≥ 98%
[7]; 5 and 10 μM, within 1 h
  killing of bacterial cells, in words: killed all bacterial cells
P. aeruginosa [8]; Pseudomonas aeruginosa, read-out: MBC
  MBC: 0.001 mM
P. aeruginosa [8]
  MBC: 0.4 µg/mL
P. aeruginosa [8]; planktonic form
  susceptibility in words: susceptible
K. pneumoniae [3]
  antimicrobial susceptibility: S
S. epidermidis [1]
  antimicrobial susceptibility: S

## LLGDFFRKSKEKIGKEFKRIVQRIKDFLRNL [LL-31]
P. aeruginosa biofilm [4]; biofilm, 24 h
  IC50: 5.3 µM
S. epidermidis biofilm [9]; biofilm, 24 h
  IC50: 1.8 µM
K. pneumoniae biofilm [10]; biofilm, 24 h
  IC50: 0.7 µM

## NC[C@H]1O[C@H](O[C@H]2[C@H](O)[C@@H](O[C@H]3O[C@H](CO)[C@@H](O)[C@H](N)[C@H]3O)[C@H](N)C[C@@H]2N)[C@H](O)[C@@H](O)[C@@H]1O [KAN, Kanamycin]
K. pneumoniae [3]
  antimicrobial susceptibility: S
S. epidermidis [1]
  antimicrobial susceptibility: S

## CC1(C)S[C@@H]2[C@H](NC(=O)[C@H](N)c3ccc(O)cc3)C(=O)N2[C@H]1C(=O)O [AMX, amoxicillin]
K. pneumoniae [11]; Klebsiella pneumoniae, read-out: MBC
  MBC: 8.55 mM
K. pneumoniae [11]; Klebsiella pneumoniae, three independent experiments in triplicate, read-out: MIC
  MIC: 4.28 mM
K. pneumoniae [11]
  MBC: 3125 µg/mL
  MIC: 1562.5 µg/mL
P. aeruginosa biofilm [4]; [17]
  IC50: 45.2 mM and 16500 µg/mL
P. aeruginosa biofilm [4]; biofilm
  IC50 of AMX higher than that of D-LL-31: about 11000 fold
P. aeruginosa biofilm [4]; [18]
  killing activity: 70%
S. epidermidis biofilm [9]; Staphylococcus epidermidis, 24 h, read-out: IC50 value
  IC50: 33.1 mM and 12100 µg/mL
S. epidermidis biofilm [9]; biofilm
  IC50 of AMX higher than that of D-LL-31: ~66000 fold
S. epidermidis biofilm [9]; [18]
  killing activity: 75%
K. pneumoniae biofilm [10]; Klebsiella pneumoniae, 24 h, read-out: IC50 value
  IC50: 7.92 mM and 2900 µg/mL
K. pneumoniae biofilm [10]; biofilm
  IC50 of AMX higher than that of D-LL-31: ~13000 fold
K. pneumoniae biofilm [10]; [18]
  killing activity: 90%
[12]
  effect on biofilm biomass: significant effect
K. pneumoniae biofilm [13]; 24 h
  IC50: 495 µM
K. pneumoniae biofilm [13]
  IC50: 181 µg/mL
P. aeruginosa biofilm [5]; Pseudomonas aeruginosa, 24 h; read-out: Antimicrobial agent in concentration of combination
  IC50: 2820 µM
P. aeruginosa biofilm [5]; Pseudomonas aeruginosa; read-out: Antimicrobial agent in concentration of combination
  IC50: 1030 µg/mL
S. epidermidis [14]
  MIC: 1562.5 µg/mL
S. epidermidis [14]; Staphylococcus epidermidis, read-out: MIC
  MIC: 4.28 mM
S. epidermidis biofilm [15]; 24 h
  IC50: 2070 µM
S. epidermidis biofilm [15]
  IC50: 756 µg/mL
[16]
  susceptibility in words: Resistance

## Cc1onc(-c2ccccc2)c1C(=O)N[C@@H]1C(=O)N2[C@@H]1SC(C)(C)[C@@H]2C(=O)O [OXA, Oxacillin]
S. epidermidis [1]
  antimicrobial susceptibility: S

## O=C(N[C@H](CO)[C@H](O)c1ccc([N+](=O)[O-])cc1)C(Cl)Cl [CHL, Chloramphenicol]
P. aeruginosa ATCC27853
  antimicrobial susceptibility: S
P. aeruginosa [2]
  antimicrobial susceptibility: R
K. pneumoniae [3]
  antimicrobial susceptibility: S
S. epidermidis [1]
  antimicrobial susceptibility: S

## CC1(C)S[C@@H]2[C@H](NC(=O)[C@H](N)c3ccccc3)C(=O)N2[C@H]1C(=O)O [AMP, Ampicillin]
K. pneumoniae [3]
  antimicrobial susceptibility: R
S. epidermidis [1]
  antimicrobial susceptibility: R

Source: article PMC7743948, “D-LL-31 enhances biofilm-eradicating effect of currently used antibiotics for chronic rhinosinusitis and its immunomodulatory activity on human lung epithelial cells” (PLoS ONE, 2020)
